Results reported in the supplement of paper PMC10307832.

Columns and labels:
Assay in all cases: relative viability (nuclei count vs DMSO), 5 days (fraction); higher = more cells survive
CX-5461 + OSI-027 = compound: Cc1cnc(CNC(=O)c2c(=O)c3ccc(N4CCCN(C)CC4)nc3n3c2sc2ccccc23)cn1 [CX-5461] + COc1cccc2cc(-c3nc([C@H]4CC[C@H](C(=O)O)CC4)n4ncnc(N)c34)[nH]c12 [OSI-027] (partner 0.5 µM)
Outline: (§1)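 A single step with final 0.05% Triton X-100, 1% formaldehyde and 1 ug/ml Hoechst fixed the cells and stained nuclei 5 days after treatment. Lung cancer cell lines in 1536-well plates had been treated by pin tool the day after seeding with one drug alone or a fixed anchor-drug dose plus five library-drug doses (not always all listed) in √10 steps, and nuclei were counted on 4× images. Relative viability is the ratio of nuclei in treated wells to nuclei in vehicle wells, taken as the median of duplicate plates.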

CX-5461 + Tozasertib = compound: Cc1cnc(CNC(=O)c2c(=O)c3ccc(N4CCCN(C)CC4)nc3n3c2sc2ccccc23)cn1 [CX-5461] + Cc1cc(Nc2cc(N3CCN(C)CC3)nc(Sc3ccc(NC(=O)C4CC4)cc3)n2)n[nH]1 [Tozasertib] (partner 0.1 µM)
Outline: as §1

CX-5461 + AZD7762 = compound: Cc1cnc(CNC(=O)c2c(=O)c3ccc(N4CCCN(C)CC4)nc3n3c2sc2ccccc23)cn1 [CX-5461] + NC(=O)Nc1cc(-c2cccc(F)c2)sc1C(=O)N[C@H]1CCCNC1 [AZD7762] (partner 0.2 µM)
Outline: as §1

IMD-0354 + Alpelisib = compound: O=C(Nc1cc(C(F)(F)F)cc(C(F)(F)F)c1)c1cc(Cl)ccc1O [IMD-0354] + Cc1nc(NC(=O)N2CCC[C@H]2C(N)=O)sc1-c1ccnc(C(C)(C)C(F)(F)F)c1 [Alpelisib] (partner 2 µM)
Outline: as §1

Cell Line | relative viability (CX-5461 + OSI-027; first compound 0.01 µM) | relative viability (CX-5461 + OSI-027; first compound 0.03162 µM) | relative viability (CX-5461 + OSI-027; first compound 0.1 µM) | relative viability (CX-5461 + OSI-027; first compound 0.3162 µM) | relative viability (CX-5461 + OSI-027; first compound 1 µM) | relative viability (CX-5461 + Tozasertib; first compound 0.01 µM) | relative viability (CX-5461 + Tozasertib; first compound 0.03162 µM) | relative viability (CX-5461 + Tozasertib; first compound 0.1 µM) | relative viability (CX-5461 + Tozasertib; first compound 0.3162 µM) | relative viability (CX-5461 + Tozasertib; first compound 1 µM) | relative viability (CX-5461 + AZD7762; first compound 0.01 µM) | relative viability (CX-5461 + AZD7762; first compound 0.03162 µM) | relative viability (CX-5461 + AZD7762; first compound 0.1 µM) | relative viability (CX-5461 + AZD7762; first compound 0.3162 µM) | relative viability (CX-5461 + AZD7762; first compound 1 µM) | relative viability (IMD-0354 + Alpelisib; first compound 0.04 µM) | relative viability (IMD-0354 + Alpelisib; first compound 0.1265 µM) | relative viability (IMD-0354 + Alpelisib; first compound 0.4 µM) | relative viability (IMD-0354 + Alpelisib; first compound 1.265 µM) | relative viability (IMD-0354 + Alpelisib; first compound 4 µM)
HCC-15 | 0.692 | 0.71 | 0.66 | 0.554 | 0.253 | 0.434 | 0.586 | 0.333 | 0.321 | 0.176 | 1.24 | 1.43 | 1.22 | 1.15 | 1.23 | 0.861 | 0.853 | 0.466 | 0.272 | 0.0938
HCC-44 | 0.564 | 0.623 | 0.6 | 0.51 | 0.366 | 1.05 | 1.25 | 0.922 | 0.811 | 0.29 | 1.02 | 1.06 | 0.952 | 0.963 | 0.967 | 0.857 | 0.728 | 0.379 | 0.185 | 0.134
HCC-78 | 0.409 | 0.362 | 0.366 | 0.363 | 0.354 | 0.463 | 0.391 | 0.466 | 0.326 | 0.453 | 0.862 | 0.695 | 0.601 | 0.596 | 0.614 | 0.366 | 0.345 | 0.121 | 0.231 | 0.192
NCI-H727 | 0.59 | 0.866 | 0.622 | 0.58 | 0.584 | 0.529 | 0.666 | 0.57 | 0.633 | 0.593 | 0.48 | 0.709 | 0.473 | 0.648 | 0.566 | 0.606 | 0.641 | 0.497 | 0.396 | 0.352
NCI-H2087 | 0.61 | 0.499 | 0.474 | 0.369 | 0.407 | 0.208 | 0.276 | 0.243 | 0.265 | 0.159 | 1.22 | 1.42 | 1.44 | 1.43 | 1.13 | 1.04 | 0.938 | 0.329 | 0.136 | 0.131
BEN | 0.346 | 0.321 | 0.286 | 0.281 | 0.284 | 0.481 | 0.529 | 0.499 | 0.495 | 0.498 | 0.737 | 0.615 | 0.555 | 0.745 | 0.531 | 1.11 | 0.915 | 0.498 | 0.442 | 0.245
LCLC-103H | 0.458 | 0.433 | 0.434 | 0.446 | 0.384 | 0.457 | 0.527 | 0.473 | 0.391 | 0.477 | 0.823 | 0.829 | 0.819 | 0.68 | 0.762 | 0.952 | 0.998 | 0.839 | 0.815 | 0.397
EKVX | 0.745 | 0.676 | 0.786 | 0.734 | 0.688 | 0.387 | 0.366 | 0.332 | 0.35 | 0.378 | 0.778 | 0.687 | 0.763 |  | 0.45 | 0.931 | 0.992 |  | 0.73 | 0.179
